Literature values in patent publication US20070105927A1, “Amorphous rizatriptan benzoate” (Glenmark Pharmaceuticals Limited, priority 2005, published 2007).

Columns and labels:
[1] = in vivo
5-HTIE receptor subtype = 5-HTIE receptor subtype (Homo sapiens, UniProt P28566)
[2] = test system: beta-adrenergic receptors
[3] = test system: alpha-adrenergic receptors
[4] = target: human cloned 5-HT1D receptors (Homo sapiens, UniProt P28221); conditions: human cloned receptor
[5] = target: human cloned 5-HT1B receptors (Homo sapiens, UniProt P28222); conditions: human cloned receptor
5-HT7 receptor = 5-HT7 receptor (Homo sapiens, UniProt P34969)
5-HT1A receptor subtype = target: T1, 5-HT1A receptor subtype (Homo sapiens, UniProt P08908)
T1 sequence (P08908 1-422): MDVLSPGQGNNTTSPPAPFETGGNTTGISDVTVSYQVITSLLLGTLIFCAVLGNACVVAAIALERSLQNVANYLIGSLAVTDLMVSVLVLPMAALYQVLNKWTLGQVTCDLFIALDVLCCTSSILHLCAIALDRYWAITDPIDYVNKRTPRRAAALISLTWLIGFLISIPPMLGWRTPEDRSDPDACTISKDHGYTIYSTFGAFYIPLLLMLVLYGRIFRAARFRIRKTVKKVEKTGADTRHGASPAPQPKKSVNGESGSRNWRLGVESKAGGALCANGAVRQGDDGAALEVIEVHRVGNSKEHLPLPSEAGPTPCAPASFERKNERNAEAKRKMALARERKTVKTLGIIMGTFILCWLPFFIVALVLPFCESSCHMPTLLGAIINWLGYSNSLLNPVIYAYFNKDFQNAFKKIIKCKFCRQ

5-HTIF receptor subtype = target: T2, 5-HTIF receptor subtype (Homo sapiens, UniProt P30939)
T2 sequence (P30939 1-366): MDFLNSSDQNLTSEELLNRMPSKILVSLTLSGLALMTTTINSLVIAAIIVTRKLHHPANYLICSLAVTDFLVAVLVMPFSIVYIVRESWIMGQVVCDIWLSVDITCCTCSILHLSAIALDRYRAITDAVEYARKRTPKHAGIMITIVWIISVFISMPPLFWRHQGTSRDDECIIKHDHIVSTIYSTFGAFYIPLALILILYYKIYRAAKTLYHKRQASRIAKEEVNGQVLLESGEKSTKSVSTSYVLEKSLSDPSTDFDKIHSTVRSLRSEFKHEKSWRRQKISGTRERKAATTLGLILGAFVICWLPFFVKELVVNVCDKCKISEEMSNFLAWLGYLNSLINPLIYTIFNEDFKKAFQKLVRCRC

human cloned 5-HT1D receptors, sequence (P28221 whole entry): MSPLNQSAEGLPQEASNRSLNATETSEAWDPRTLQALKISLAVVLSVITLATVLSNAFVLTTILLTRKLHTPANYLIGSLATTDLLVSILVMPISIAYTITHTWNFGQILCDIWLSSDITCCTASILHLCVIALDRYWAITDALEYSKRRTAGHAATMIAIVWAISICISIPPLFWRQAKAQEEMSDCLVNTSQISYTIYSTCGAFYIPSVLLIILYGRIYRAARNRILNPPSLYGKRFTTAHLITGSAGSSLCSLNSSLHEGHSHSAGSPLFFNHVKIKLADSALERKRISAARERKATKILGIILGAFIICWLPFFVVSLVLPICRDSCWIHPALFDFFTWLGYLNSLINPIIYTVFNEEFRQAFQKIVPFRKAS
human cloned 5-HT1B receptors, sequence (P28222 whole entry): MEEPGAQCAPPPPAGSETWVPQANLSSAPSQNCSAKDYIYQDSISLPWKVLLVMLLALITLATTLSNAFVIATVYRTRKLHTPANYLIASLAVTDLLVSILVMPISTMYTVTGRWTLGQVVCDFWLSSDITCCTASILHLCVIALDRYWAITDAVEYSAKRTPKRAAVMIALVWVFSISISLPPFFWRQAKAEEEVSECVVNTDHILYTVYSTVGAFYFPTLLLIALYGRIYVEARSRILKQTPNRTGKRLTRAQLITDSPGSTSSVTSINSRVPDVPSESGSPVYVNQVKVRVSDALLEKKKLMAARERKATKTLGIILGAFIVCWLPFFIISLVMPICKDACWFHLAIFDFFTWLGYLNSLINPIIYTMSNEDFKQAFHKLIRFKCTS
5-HTIE receptor subtype, sequence (P28566 whole entry): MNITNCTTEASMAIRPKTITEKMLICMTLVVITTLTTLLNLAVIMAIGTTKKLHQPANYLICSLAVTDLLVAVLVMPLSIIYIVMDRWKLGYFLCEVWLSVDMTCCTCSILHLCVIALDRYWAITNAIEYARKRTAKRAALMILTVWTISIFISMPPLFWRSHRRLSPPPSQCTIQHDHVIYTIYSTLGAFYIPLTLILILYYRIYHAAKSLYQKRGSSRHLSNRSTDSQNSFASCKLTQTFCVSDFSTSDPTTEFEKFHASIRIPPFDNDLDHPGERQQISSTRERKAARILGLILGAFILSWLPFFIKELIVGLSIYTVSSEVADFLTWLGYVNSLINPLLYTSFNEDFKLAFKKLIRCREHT
5-HT7 receptor, sequence (P34969 whole entry): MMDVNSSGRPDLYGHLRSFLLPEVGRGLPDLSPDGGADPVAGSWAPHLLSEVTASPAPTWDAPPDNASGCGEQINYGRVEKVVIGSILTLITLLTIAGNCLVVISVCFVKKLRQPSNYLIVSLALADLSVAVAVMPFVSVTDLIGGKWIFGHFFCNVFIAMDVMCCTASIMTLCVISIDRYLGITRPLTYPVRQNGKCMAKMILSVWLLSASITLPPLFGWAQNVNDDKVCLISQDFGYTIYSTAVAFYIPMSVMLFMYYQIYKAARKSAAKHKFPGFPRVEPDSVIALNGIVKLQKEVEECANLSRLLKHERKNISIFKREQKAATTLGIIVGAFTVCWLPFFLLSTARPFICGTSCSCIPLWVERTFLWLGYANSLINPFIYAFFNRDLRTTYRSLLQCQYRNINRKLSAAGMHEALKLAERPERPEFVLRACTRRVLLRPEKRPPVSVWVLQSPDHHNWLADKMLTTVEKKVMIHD

Row | activity at 5-HT3 receptors (5-HT3 receptors) | activity at muscarinic receptors (muscarinic receptors) | affinity for 5-HTIE receptor subtype (5-HTIE receptor subtype) | activity at benzodiazepine receptors (benzodiazepine receptors) | activity at dopaminergic receptors (dopaminergic receptors) | activity at beta-adrenergic receptors [2] | activity at alpha-adrenergic receptors [3] | affinity for 5-HT1D receptors [4] | affinity for 5-HT1B receptors [5] | activity at histaminergic receptors (histaminergic receptors) | affinity for 5-HT7 receptor (5-HT7 receptor) | activity at 5-HT2 receptors (5-HT2 receptors) | affinity for 5-HT1A receptor subtype (5-HT1A receptor subtype) | affinity for 5-HTIF receptor subtype (5-HTIF receptor subtype) | Structure (SMILES) | bioavailability [1]
1 |  |  |  |  |  |  |  |  |  |  |  |  |  |  | CO/N=C(\C(=O)N[C@@H]1C(=O)N2C(C(=O)OC(C)OC(C)=O)=C(COC(N)=O)CS[C@H]12)c1ccco1 (stereo partly drawn) [cefuroxime axietil] | much higher bioavailability than the crystalline forms
2 | no significant activity | no significant activity | weak affinity | no significant activity | no significant activity | no significant activity | no significant activity | high affinity | high affinity | no significant activity | weak affinity | no significant activity | weak affinity | weak affinity | CN(C)CCc1c[nH]c2ccc(Cn3cncn3)cc12 [Rizatriptan] | 
